According to paper PMC10470319 (iScience, 2023):
“Also recorded” adds a separate entry of the source.

Legend:
SARS-CoV-2 Mpro [1] = target: T1, SARS-CoV-2 Mpro (Severe acute respiratory syndrome coronavirus 2, UniProt P0DTD1); assay type: biochemical
SARS-CoV-2 Mpro [2] = target: T1, SARS-CoV-2 Mpro; assay type: biochemical; remark: listed apart in the source
SARS-CoV-2 Mpro [3] = target: T1, SARS-CoV-2 Mpro; assay: biochemical; details: for inhibition of Mpro in the initial screen: 17 μM
SARS-CoV-2 [4] = assay type: cell-based
SARS-CoV-2 infection = details: in vivo; cited from earlier work
SARS-CoV-2 [5] = details: read-out: IC50 for inhibition of SARS-CoV-2 replication; cited from earlier work
Calu-3 cells = details: cited from earlier work

For O=c1c(-c2c(O)cc(O)c3c(=O)cc(-c4ccc(O)cc4)oc23)c(-c2ccc(O)cc2)oc2cc(O)cc(O)c12 [3,8'-Biapigenin], the “inhibition of Mpro activity, mass spectrometry assay” value (SARS-CoV-2 Mpro [1]) was “completely inhibited”.
For O=c1cc(-c2ccc(O)c(-c3c(O)cc(O)c4c(=O)cc(-c5ccc(O)cc5)oc34)c2)oc2cc(O)cc(O)c12 [Amentoflavone], the “inhibition of Mpro activity, mass spectrometry assay” value (SARS-CoV-2 Mpro [1]) was “completely inhibited” and the “reversibility of Mpro inhibition on dilution” value (SARS-CoV-2 Mpro [2]) was “reversible”.
With O=c1cc(-c2ccccc2)oc2cc(O)c(O)c(O)c12 [Baicalein, reference compound] the “inhibition of Mpro in the initial screen” value (SARS-CoV-2 Mpro [3]) was “showed inhibition”, the “reversibility of Mpro inhibition on dilution” value (SARS-CoV-2 Mpro [2]) was “reversible” and the “inhibition of SARS-CoV-2 replication (in words)” value (SARS-CoV-2 [4]) was “inhibited SARS-CoV-2 infection”. The “body weight after SARS-CoV-2 infection” value (SARS-CoV-2 infection) was “prevented reduction in body weight” and the “lung injury resulting from SARS-CoV-2 infection” value (SARS-CoV-2 infection) was “decreased lung injury”.
With O=c1c(O)c(-c2cc(O)c(O)c(O)c2)oc2cc(O)cc(O)c12 [Myricetin, reference compound] the “inhibition of Mpro in the initial screen” value (SARS-CoV-2 Mpro [3]) was “showed inhibition”, the “reversibility of Mpro inhibition on dilution” value (SARS-CoV-2 Mpro [2]) was “irreversible” and the “inhibition of SARS-CoV-2 replication (in words)” value (SARS-CoV-2 [4]) was “inhibits SARS-CoV-2 replication”.
In the case of O=c1cc(-c2ccc(O)cc2)oc2cc(O)cc(O)c12 [apigenin], the IC50 (SARS-CoV-2 Mpro [3]) is reported as 20 ± 9 µM, the “reversibility of Mpro inhibition on dilution” value (SARS-CoV-2 Mpro [2]) is reported as “reversible” and the “inhibition of SARS-CoV-2 replication (in words)” value (SARS-CoV-2 [4]) is reported as “slightly better than baicalein at 50 μM; also recorded: inhibits viral replication at concentrations that are not toxic”. The “toxicity in cell culture” value (Vero E6 cells) was “some toxicity”, the IC50 (SARS-CoV-2 [5]) was 5.11 ± 0.26 µM and the CC50 (Calu-3 cells) was 302 ± 15 µM.
In the case of O=C1C[C@@H](c2ccccc2)Oc2cc(O)cc(O)c21 [pinocembrin], the “inhibition of Mpro (in words)” value (SARS-CoV-2 Mpro [3]) is reported as “relatively poor inhibition”.
